Data as given in US20120135417A1, “METHODS FOR SCREENING AND IDENTIFYING COMPOUNDS” (priority 2009, published 2012).
Values belong to the compound of their own block, whether it stands above or below them.

What was measured:
Format in all cases: biochemical
[1] = tested on: FMN riboswitch (B. subtilis ribDEAHT operon); experiment: FMN riboswitch-mediated in vitro transcription termination assay, [α-33P]-ATP radiometric detection
Method: The FMN riboswitch within the leader sequence of the B. subtilis ribDEAHT operon was amplified by PCR from B. subtilis strain 168 (Bacillus Genetic Stock Center—designation 1A1). PCR of a B. subtilis genomic preparation is performed using Platinum® Taq DNA Polymerase High Fidelity from Invitrogen (catalog #11304-011) and the sense PCR and the antisense polyA PCR primers (SEQ ID: NO 1 and 2, or SEQ ID: NO 1 and 3, respectively, as shown in table below). […] These overhangs allow the ligation of DNA into the pCR®2.1-TOPO® vector using a TOPO TA Cloning® kit (Invitrogen catalog #K4500-01). Following transformation, colonies that contained disrupted β-galactosidase are picked and grown overnight. Correct insertion and orientation of PCR product are verified by restriction analysis and sequencing. PCR of the resulting clone is used to generate DNA sequences for use in in vitro transcription termination assays. […]
Synthetic DNA primers and a biotinylated oligo (dT) may be obtained from the Keck Foundation Biotechnology Resource Center at Yale University. […] 50 μl of Microscint™PS (PerkinElmer, catalog #6013631) are then added to wells and the plate is read in a TopCount®NXT™ microplate scintillation and luminescence counter (PerkinElmer). Other readers and counters may be also be used. […]

[2] = tested on: FMN riboswitch (B. subtilis ribDEAHT operon); experiment: FMN riboswitch-mediated in vitro transcription termination assay, RiboGreen fluorescence detection; details: FIG. 14; RNA binding fluorophore (RiboGreen) detection, 10 μM each rNTP, 3 mM Mg2+, 4-hour reaction
[3] = tested on: TPP riboswitch (B. subtilis tenA operon); experiment: TPP riboswitch-mediated in vitro transcription termination assay, RiboGreen fluorescence detection; details: FIG. 15; RNA binding fluorophore (RiboGreen) detection, 5 μM each rNTP, 2 mM Mg2+, 3-hour reaction
Method: In vitro plate-based transcription assay: In vitro transcription reactions are carried out at 25° C. in a total reaction volume of 50 μL. Reactions are performed in Reacti-Bind™ Streptavidin High Binding Capacity Coated 96-Well Plates (Pierce, catalog #15502) in assay buffer at a final concentration of 20 mM HEPES at pH 8.0, 60 mM KCl, 0.1 mM EDTA, and 0.005% BSA. To prepare plates, wells are washed three times with successive addition and aspiration of wash buffer containing 25 mM Tris-HCl at pH 7.4 and 150 mM NaCl. Each well is then given assay buffer, followed by addition of FMN into control wells or DMSO into test wells. Enzyme mixture containing sigma-saturated E. coli polymerase (Epicentre Biotechnologies, catolog #S90250) was then added to all wells. The reaction was initiated by the addition of a start mix containing ribonucleotides (Promega, Catalog #P1300), biotinylated oligo (dT)25, magnesium, [α-^33P]-labeled ATP and DNA sequence. […] 50 μl of Microscint™PS (PerkinElmer, catalog #6013631) are then added to wells and the plate is read in a TopCount®NXT™ microplate scintillation and luminescence counter (PerkinElmer). […]

E. coli RNA polymerase = target: T1, E. coli RNA polymerase (Escherichia coli, UniProt P0A8V2); experiment: In vitro plate-based transcription assay, inhibition of RNA polymerase activity (radiometric); details: FIG. 10; 12.5 μM each rNTP, 2.5 mM Mg2+, 0.1 Unit RNA polymerase; read-out: IC50 value for inhibition of the in vitro transcription reaction
T1 construct: purchased Epicentre Biotechnologies S90250
Method: Synthetic DNA primers and a biotinylated oligo (dT) may be obtained from the Keck Foundation Biotechnology Resource Center at Yale University. Flavin mononucleotide (FMN) may be purchased from Fluka BioChemika (catalog #83810). [α-^33P] labeled Adenosine 5′ triphosphate was acquired from American Radiolabeled Chemicals, Inc. (catalog #ARP0131). In vitro plate-based transcription assay: In vitro transcription reactions are carried out at 25° C. in a total reaction volume of 50 μL. […] 50 μl of Microscint™PS (PerkinElmer, catalog #6013631) are then added to wells and the plate is read in a TopCount®NXT™ microplate scintillation and luminescence counter (PerkinElmer). Other readers and counters may be also be used.
The antibacterial rifampin is an RNA polymerase inhibitor (Liu, J., Feldman, P. A., Lippy, J. S., Bobkova, K., Kurilla, M. G, and Chung, T. D. Y., 2001 Analytical Biochemistry, 289, 239-245, Fujii, K., Saito, H., Tomioka, H., Mae, and T., Hosoe, K., 1995 Antimicrobial Agents and Chemotherapy, 39, 1489-1492, Morris, A. B., Brown, R. B., and Sands, M., 1993 Antimicrobial Agents and Chemotherapy 37, 1-7). Rifampin is titrated to inhibit in vitro transcription reaction and its inhibitory IC50 value is determined (FIG. 10). […]

T1 sequence (P0A8V2 whole entry): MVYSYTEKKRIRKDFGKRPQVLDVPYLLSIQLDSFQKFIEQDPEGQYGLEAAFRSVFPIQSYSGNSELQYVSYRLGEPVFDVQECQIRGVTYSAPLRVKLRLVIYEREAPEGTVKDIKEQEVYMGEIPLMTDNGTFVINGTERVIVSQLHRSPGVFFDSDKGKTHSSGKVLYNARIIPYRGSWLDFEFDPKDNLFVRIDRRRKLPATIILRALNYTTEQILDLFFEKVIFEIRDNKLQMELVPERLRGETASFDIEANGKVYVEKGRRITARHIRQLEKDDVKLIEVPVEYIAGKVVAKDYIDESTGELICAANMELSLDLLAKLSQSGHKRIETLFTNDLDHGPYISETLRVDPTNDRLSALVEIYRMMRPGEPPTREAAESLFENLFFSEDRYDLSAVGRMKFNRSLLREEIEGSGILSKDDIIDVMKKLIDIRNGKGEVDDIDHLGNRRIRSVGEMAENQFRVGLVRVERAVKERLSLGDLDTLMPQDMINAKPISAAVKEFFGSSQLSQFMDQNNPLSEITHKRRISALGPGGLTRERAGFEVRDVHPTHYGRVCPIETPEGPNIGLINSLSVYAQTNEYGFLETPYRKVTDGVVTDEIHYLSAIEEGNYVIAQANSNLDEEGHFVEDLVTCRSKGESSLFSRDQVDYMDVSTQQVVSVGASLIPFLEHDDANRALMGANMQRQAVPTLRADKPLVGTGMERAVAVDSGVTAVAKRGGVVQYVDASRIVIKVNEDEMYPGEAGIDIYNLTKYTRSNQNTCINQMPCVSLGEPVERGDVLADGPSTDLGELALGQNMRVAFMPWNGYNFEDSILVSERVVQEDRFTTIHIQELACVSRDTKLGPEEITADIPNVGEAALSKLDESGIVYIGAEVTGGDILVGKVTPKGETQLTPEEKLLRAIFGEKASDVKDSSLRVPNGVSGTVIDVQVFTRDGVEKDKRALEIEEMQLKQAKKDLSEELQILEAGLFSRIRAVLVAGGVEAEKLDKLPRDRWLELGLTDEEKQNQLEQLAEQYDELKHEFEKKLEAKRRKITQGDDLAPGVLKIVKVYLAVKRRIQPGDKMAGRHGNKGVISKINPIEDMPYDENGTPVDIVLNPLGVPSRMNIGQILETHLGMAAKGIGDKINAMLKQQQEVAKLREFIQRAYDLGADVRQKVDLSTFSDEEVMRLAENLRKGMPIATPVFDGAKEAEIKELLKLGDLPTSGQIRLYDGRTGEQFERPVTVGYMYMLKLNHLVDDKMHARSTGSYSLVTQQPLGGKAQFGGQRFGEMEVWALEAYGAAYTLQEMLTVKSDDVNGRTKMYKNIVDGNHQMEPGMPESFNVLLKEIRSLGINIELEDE
T1 sequence (P0A8T7 whole entry partner): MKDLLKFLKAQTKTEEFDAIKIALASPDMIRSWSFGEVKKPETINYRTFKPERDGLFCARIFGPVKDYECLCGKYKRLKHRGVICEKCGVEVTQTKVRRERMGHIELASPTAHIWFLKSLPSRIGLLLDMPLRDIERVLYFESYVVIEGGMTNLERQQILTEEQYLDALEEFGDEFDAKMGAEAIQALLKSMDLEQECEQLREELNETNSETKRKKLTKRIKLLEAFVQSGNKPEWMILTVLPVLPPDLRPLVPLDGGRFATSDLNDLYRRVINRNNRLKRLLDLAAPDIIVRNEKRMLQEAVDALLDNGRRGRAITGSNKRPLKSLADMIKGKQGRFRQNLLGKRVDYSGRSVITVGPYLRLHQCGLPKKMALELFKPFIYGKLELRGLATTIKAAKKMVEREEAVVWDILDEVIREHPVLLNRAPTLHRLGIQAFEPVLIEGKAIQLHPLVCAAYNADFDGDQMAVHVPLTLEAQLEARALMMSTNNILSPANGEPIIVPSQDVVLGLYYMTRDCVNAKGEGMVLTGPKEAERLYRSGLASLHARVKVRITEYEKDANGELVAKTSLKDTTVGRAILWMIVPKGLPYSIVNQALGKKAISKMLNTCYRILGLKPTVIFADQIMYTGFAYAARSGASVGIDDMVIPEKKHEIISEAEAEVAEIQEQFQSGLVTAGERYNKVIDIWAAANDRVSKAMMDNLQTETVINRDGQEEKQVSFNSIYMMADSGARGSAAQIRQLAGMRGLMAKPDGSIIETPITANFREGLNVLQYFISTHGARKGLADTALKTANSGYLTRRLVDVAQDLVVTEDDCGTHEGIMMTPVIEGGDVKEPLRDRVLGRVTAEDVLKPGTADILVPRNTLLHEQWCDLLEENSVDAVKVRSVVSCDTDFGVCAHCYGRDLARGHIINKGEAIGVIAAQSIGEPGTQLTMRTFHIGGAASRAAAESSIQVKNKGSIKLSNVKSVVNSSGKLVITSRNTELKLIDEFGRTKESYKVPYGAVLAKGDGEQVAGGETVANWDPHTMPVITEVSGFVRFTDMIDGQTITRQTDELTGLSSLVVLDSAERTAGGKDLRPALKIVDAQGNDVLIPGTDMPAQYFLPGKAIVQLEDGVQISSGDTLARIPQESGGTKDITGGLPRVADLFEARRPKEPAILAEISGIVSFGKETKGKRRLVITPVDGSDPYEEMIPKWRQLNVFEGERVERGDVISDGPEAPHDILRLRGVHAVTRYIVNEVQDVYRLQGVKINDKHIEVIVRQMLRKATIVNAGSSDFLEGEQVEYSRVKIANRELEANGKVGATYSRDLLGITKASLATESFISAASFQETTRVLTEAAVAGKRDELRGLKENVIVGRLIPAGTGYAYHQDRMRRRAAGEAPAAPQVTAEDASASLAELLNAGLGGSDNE
T1 sequence (P0A7Z4 whole entry partner): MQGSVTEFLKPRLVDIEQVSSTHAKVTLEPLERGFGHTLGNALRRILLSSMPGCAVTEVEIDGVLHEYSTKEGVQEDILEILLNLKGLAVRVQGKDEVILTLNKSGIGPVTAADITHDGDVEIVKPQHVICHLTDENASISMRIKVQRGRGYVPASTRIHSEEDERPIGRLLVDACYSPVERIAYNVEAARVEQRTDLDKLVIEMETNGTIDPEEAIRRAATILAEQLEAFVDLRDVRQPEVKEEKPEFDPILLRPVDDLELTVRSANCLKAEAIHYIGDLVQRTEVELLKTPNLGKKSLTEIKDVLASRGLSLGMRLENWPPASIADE
T1 sequence (P0A800 2-91 partner limits assumed): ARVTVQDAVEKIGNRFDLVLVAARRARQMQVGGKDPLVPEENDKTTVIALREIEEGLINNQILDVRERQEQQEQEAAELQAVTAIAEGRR
T1 sequence (P00579 whole entry partner): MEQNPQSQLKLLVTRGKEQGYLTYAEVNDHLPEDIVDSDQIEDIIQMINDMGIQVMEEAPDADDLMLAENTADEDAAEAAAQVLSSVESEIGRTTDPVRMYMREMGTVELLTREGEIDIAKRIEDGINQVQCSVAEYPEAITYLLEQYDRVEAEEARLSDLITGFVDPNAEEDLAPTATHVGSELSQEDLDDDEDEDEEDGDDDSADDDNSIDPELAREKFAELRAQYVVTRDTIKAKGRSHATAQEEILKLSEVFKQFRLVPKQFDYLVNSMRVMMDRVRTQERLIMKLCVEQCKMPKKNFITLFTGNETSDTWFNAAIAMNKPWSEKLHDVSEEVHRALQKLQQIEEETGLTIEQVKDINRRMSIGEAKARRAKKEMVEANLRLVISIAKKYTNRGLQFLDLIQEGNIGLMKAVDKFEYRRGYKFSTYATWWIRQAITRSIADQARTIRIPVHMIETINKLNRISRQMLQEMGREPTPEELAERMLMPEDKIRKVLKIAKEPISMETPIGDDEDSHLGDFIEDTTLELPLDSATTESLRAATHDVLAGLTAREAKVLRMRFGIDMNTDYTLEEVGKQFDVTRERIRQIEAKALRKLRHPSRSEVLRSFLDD

SMILES: Cc1cc2nc3c(=O)[nH]c(=O)nc-3n(C[C@H](O)[C@H](O)[C@H](O)COP(=O)(O)O)c2cc1C [FMN, Flavin mononucleotide]
- Signal (cpm) of captured polyA full-length transcript ([1]; FIG. 5A, 100 μM FMN versus no FMN, DNA sequence encoding a polyA sequence): significant decrease in signal
- IC50 ([1]; FIG. 11, 12.5 μM each rNTP, 2.5 mM Mg2+, 0.1 Unit RNA polymerase, radiolabel detection): 45 nM
- IC50 [2]: 116 nM

SMILES: Cc1ncc(C[n+]2csc(CCO[P@](=O)(O)OP(=O)(O)O)c2C)c(N)n1 [TPP, Thiamine pyrophosphate]
- IC50 [3]: 170 nM

- IC50 (E. coli RNA polymerase): 8.2 nM
SMILES: CO[C@H]1/C=C/O[C@@]2(C)Oc3c(C)c(O)c4c(O)c(c(/C=N/N5CCN(C)CC5)c(O)c4c3C2=O)NC(=O)/C(C)=C\C=C\[C@H](C)[C@H](O)[C@@H](C)[C@@H](O)[C@@H](C)[C@H](OC(C)=O)[C@@H]1C [rifampin]

SMILES: Cc1cc2nc3c(=O)[nH]c(=O)nc-3n(C[C@H](O)[C@H](O)[C@H](O)CO)c2cc1N(C)C [roseoflavine, roseoflavin]
- IC50 [2]: > 100000 nM

SMILES: Cc1ncc(C[n+]2csc(CCOP(=O)(O)O)c2C)c(N)n1 [TMP, Thiamine monophosphate]
- IC50 [3]: > 25000 nM
